pIC50: −log10 of the molar value. In brackets after ≈: the same amount, converted by molar mass.
Legend:
Solubility = type: physicochemical
[1] = tested on: Enterococcus faecium ATCC 10541; assay: Antibacterial activity, MIC by agar dilution method; type: cell-based; details: ATCC10541, pH 7
Method: (§1) The antibacterial activity was determined by the agar dilution method using a medium (pH 7) which comprises 3 g/l Bacto-Tryptone (produced by Difco Laboratories), 3 g/l meat extract, 1 g/l yeast extract, 1 g/l glucose and 16 g/l agar.

[2] = tested on: Staphylococcus aureus ATCC 6538P; assay: as above; type: cell-based; details: ATCC6538P, pH 7
Method: as §1

HeLaS3 cells = assay: Anti-tumor activity against HeLaS3 cells (Neutral Red growth inhibition); type: cell-based; details: Homo sapiens, HeLa S3, 72 hours
Method: HeLaS3 cells (ATCC HTB22) were suspended in a medium comprising 10% fetal calf serum, 2 mM glutamine and MEM medium (produced by Nippon Pharmaceutical Co., Ltd.) (hereinafter referred to as medium A) to a concentration of 3×10^4 cells/ml. The cell suspension was put into wells of a 96-well microtiter plate in an amount of 0.1 ml per well. The cells in the plate were cultured at 37° C. for 20 hours in a CO2 -incubator. Subsequently, the test compound appropriately diluted with medium A was added to the wells in an amount of 0.1 ml/well. The cells were further cultured at 37° C. for 72 hours in the CO2 -incubator, and then the culture supernatant was removed. To the residue was added a medium comprising medium A and 0.02% Neutral Red in an amount of 0.1 ml per well, followed by culturing at 37° C. for one hour in the CO2 -incubator, whereby the cells were stained. After removal of the culture supernatant, the residue was washed once with physiological saline. The pigment was extracted with 0.001N hydrochloric acid/30% ethanol, and the absorbance at 550 nm was measured by using a microplate reader. The concentration of the test compound at which the growth of the cells is inhibited by 50% (IC50) was calculated by comparing the absorbance of untreated cells with those of the cells treated with the test compound at known concentrations.

BALB 3T3/H-ras cells = assay: Growth inhibition against BALB 3T3/H-ras cells; type: cell-based; details: Mus musculus, 72 hours, Neutral Red

O=C1c2cc(O)cc(O)c2C(=O)c2c1cc1cc(O)cc(O)c1c2O [UCT 1003, reference compound]
Solubility (Solubility; water): sparingly soluble

O=C1c2cc(O)cc(O)c2C(=O)c2c1cc1cc(O)cc(OS(=O)(=O)O)c1c2O [UCE 1022]
MIC [1]: 0.52 µg/mL (≈ 1.24 µM)
MIC [2]: 0.52 µg/mL (≈ 1.24 µM)
pIC50 (HeLaS3 cells): 5.21
Solubility (Solubility; ethanol): Soluble
Solubility (Solubility; methanol): Soluble
Solubility (Solubility; n-hexane): sparingly soluble
Solubility (Solubility; water): Soluble

CC(=O)c1c(O)cc2cc3c(c(O)c2c1O)C(=O)c1c(O)cc(O)cc1C3=O [Saintopin E]
pIC50 (BALB 3T3/H-ras cells): 5.62
Solubility (Solubility; acetone): Readily soluble
Solubility (Solubility; chloroform): soluble
Solubility (Solubility; dimethyl sulfoxide (DMSO)): Readily soluble
Solubility (Solubility; ethyl acetate): soluble
Solubility (Solubility; methanol): Readily soluble
Solubility (Solubility; n-hexane): sparingly soluble
Solubility (Solubility; water): sparingly soluble
